The results in this text go back to BindingDB's records for doi:10.3109/14756366.2010.504674 (University of Bonn, 2011).

Some results are limits rather than exact numbers.

What all share (experiment): Cholinesterase Inhibition Assay
Conditions in all cases: pH 7.3; 25 °C

In assay [1] the target is Acetylcholinesterase (Electrophorus electricus, UniProt O42275). How it is done: (§1) Cholinesterase inhibition was assayed spectrophotometrically at 412 nm at 25°C [Pietsch et al., J. Med. Chem., 48:8270-8288; Ellman et al., Biochem. Pharmacol., 7:88-95]. Product formation was monitored over 5 min. Assay buffer was 100 mM sodium phosphate, 100 mM NaCl, pH 7.3. Enzyme stock solutions were prepared with assay buffer in the following concentrations ∼ 100 U/mL (EeAChE),∼ 3 U/mL (hAChE), ∼ 10 U/mL (hBChE), and were kept at 0°C. Appropriate dilutions of the EeAChE (1:30) and hBChE (1:10) solutions were done immediatelybefore starting the measurements. Solutions of ATCh (5, 10, 15, or 20 mM), BTCh (10 mM), and DTNB (7 mM) were prepared in assay buffer and kept at 0°C. Stock solutions of the inhibitors were prepared in acetonitrile. EeAChE was assayed as follows. Into a cuvette containing 830 μL assay buffer, 50 μL of the DTNB solution, 50 μL acetonitrile, 10 μL of an inhibitor solution, and 10 μL of an enzyme solution were added and thoroughly mixed. After incubation for 15 minat 25°C, the reaction was initiated by adding 50 μL of the ATCh solution. The following final concentration were used, ∼ 0.033 U/mL of EeAChE, 250, 500, 750, or 1000 μM of ATCh, 350 μM of DTNB, 6% acetonitrile. Similarly, hAChE (final concentration ∼ 0.03 U/mL) was assayed with 500 μM ATCh, and hBChE (finalconcentration ∼ 0.01 U/mL) with 500 μM BTCh. The rates of enzyme-catalyzed substrate hydrolysis were corrected by those of the non-enzymatic hydrolysis ofATCh or BTCh, respectively, as determined by using 10 μL of assay buffer, instead of the enzyme solution. A Km value of 550 μM19 for the substrate ATCh used in the EeAChE assay was taken for kinetic analyses.

The target of assay [2] is Acetylcholinesterase (Homo sapiens, UniProt P22303). The procedure: as §1
In the next assay the target is Cholinesterase (Homo sapiens, UniProt P06276). How it is done: as §1
Cholinesterase, sequence (P06276 whole entry): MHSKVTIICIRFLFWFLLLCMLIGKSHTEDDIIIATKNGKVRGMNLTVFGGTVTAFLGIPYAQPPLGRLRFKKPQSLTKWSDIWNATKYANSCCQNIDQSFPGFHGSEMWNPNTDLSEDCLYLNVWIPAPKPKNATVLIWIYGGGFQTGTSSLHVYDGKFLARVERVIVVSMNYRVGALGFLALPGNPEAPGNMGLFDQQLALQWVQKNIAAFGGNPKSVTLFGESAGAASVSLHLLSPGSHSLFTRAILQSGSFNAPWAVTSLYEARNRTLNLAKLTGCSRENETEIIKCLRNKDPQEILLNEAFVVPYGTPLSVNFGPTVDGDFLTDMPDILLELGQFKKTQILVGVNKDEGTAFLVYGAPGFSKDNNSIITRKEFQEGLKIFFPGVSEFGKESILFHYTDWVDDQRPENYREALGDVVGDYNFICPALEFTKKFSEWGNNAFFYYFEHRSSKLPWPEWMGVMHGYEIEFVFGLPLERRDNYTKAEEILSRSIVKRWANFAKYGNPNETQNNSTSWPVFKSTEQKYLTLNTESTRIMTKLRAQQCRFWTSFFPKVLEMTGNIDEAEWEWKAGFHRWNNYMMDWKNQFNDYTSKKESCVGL

Acetylcholinesterase (Electrophorus electricus, UniProt O42275), sequence (O42275 whole entry): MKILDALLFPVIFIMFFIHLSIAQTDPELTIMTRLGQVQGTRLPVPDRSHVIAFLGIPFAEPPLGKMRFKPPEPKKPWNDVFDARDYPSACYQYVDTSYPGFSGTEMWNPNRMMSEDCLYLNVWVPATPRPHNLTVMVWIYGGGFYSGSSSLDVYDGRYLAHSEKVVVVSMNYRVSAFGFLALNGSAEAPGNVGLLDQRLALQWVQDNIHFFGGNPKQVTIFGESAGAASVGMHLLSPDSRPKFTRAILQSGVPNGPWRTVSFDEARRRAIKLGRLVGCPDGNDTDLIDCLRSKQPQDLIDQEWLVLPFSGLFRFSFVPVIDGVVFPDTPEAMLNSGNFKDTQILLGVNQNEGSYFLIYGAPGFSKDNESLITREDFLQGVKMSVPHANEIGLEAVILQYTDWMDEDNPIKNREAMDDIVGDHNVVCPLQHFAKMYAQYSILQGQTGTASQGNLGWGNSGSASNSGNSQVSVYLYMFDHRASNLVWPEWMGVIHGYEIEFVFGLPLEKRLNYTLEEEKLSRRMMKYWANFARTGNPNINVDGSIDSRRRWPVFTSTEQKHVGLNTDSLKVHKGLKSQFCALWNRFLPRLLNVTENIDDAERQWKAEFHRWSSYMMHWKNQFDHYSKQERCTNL
Acetylcholinesterase (Homo sapiens, UniProt P22303), sequence (P22303 whole entry): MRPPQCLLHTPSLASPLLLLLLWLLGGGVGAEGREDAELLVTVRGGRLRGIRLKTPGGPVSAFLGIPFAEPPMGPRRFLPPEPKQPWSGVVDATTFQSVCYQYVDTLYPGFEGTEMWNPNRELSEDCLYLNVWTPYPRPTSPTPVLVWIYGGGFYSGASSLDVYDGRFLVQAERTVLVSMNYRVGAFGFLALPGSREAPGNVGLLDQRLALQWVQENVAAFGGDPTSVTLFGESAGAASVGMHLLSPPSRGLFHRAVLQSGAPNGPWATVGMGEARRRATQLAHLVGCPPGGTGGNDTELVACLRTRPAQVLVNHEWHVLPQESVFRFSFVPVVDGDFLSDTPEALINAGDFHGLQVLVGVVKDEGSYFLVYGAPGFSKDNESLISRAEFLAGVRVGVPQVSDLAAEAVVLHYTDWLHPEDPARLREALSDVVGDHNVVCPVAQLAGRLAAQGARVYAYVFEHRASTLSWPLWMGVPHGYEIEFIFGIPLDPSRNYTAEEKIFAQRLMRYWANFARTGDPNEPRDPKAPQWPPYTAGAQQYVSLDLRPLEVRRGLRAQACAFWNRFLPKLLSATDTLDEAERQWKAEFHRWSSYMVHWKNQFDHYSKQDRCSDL

For orientation: IC50 means the concentration that inhibits the measured activity by half. Read a high IC50 as a need for much substance. The term Ki denotes the equilibrium dissociation constant of an inhibitor or competing ligand from its target. Lower therefore signals higher affinity. Turning to `C1=Nc2sc3c(c2C2=NCCCN12)CCCC3` [3,4,9,10,11,12-Hexahydro-2H-benzothieno[3,2-e]pyrimido[1,2-c]pyrimidine (12)], the IC50 on Acetylcholinesterase [1] came out at 2260 nM; against Acetylcholinesterase [2], 20.5 µM; on Cholinesterase, 131 µM. The molecule also displayed a Ki on Acetylcholinesterase [1] of 1920 nM.

Turning to `O=C1c2c(sc3c2CCCC3)NC2=NCCCN12` [2,3,4,7,8,9,10,12-Octahydro-6H-benzothieno[2,3-d]pyrimido[1,2-a]pyrimidin-6-one (8)], the IC50 was above 75000 nM at Acetylcholinesterase [1], above 200 µM at Acetylcholinesterase [2] and above 200 µM against Cholinesterase.

In the case of `O=C1c2c(sc3c2CCCC3)NC2=NCCN12` [2,3,6,7,8,9-Hexahydro-benzothieno[2,3-d]-imidazo[1,2-a]pyrimidin-5(11H)-one (7)], the IC50 against Acetylcholinesterase [1] is above 75000 nM; against Acetylcholinesterase [2] it was above 200 µM; on Cholinesterase, above 200 µM.

Regarding `C1=Nc2sc3c(c2C2=NCCN12)CCCC3` [2,3,8,9,10,11-Hexahydro-benzothieno[3,2-e]imidazo[1,2-c]pyrimidine (11)], the IC50 at Acetylcholinesterase [1] was found to be 1750 nM; against Acetylcholinesterase [2], 56 µM; against Cholinesterase, 88 µM. Affinity at Acetylcholinesterase [1] was put at a Ki of 1320 nM.

As for `C1=Nc2sc3c(c2C2=NCCN12)CCN(Cc1ccccc1)C3` [9-Benzyl-2,3,8,9,10,11-hexahydro-imidazo[1,2-c]pyrido[4′,3′:4,5]thieno[3,2-e]pyrimidine (13)], the values for the concentration for half-maximal inhibition (IC50) against Acetylcholinesterase [1], on Acetylcholinesterase [2] and at Cholinesterase were 3090 nM, 21.8 µM and 89.9 µM, respectively. The same molecule returned an inhibition constant (Ki) on Acetylcholinesterase [1] of 2360 nM.

As for `O=C1c2c(sc3c2CCN(Cc2ccccc2)C3)NC2=NCCCN12` [9-Benzyl-2,3,4,7,8,9,10,12-octahydro-6H-pyrido[4′,3′:4,5]thieno[2,3-d]pyrimido[1,2-a]pyrimidin-6-one (10)], the IC50 on Acetylcholinesterase [1] turned out to be 1510 nM; against Acetylcholinesterase [2], 5.69 µM; against Cholinesterase, 51.5 µM. Moreover, the Ki at Acetylcholinesterase [1] was determined as 2070 nM.

`O=C1c2c(sc3c2CCN(Cc2ccccc2)C3)NC2=NCCN12` [8-Benzyl-2,3,6,7,8,9-hexahydro-imidazo[1,2-a]pyrido[4′,3′:4,5]thieno[2,3-d]pyrimidin-5(11H)-one (9)]: the IC50 against Acetylcholinesterase [1] is 1350 nM; against Acetylcholinesterase [2], 14.2 µM; against Cholinesterase it was above 200 µM. In addition, on Acetylcholinesterase [1], the affinity, expressed as Ki, was 1550 nM.

As for `C1=Nc2sc3c(c2C2=NCCCN12)CCN(Cc1ccccc1)C3` [10-Benzyl-3,4,9,10,11,12-hexahydro-2H-pyrido[4′,3′:4,5]thieno[3,2-e]pyrimido[1,2-c]pyrimidin (14)], the IC50 amounted to 1730 nM at Acetylcholinesterase [1], 62.5 µM at Acetylcholinesterase [2] and 119 µM at Cholinesterase. Moreover, the Ki at Acetylcholinesterase [1] was found to be 1500 nM.
